pIC50: −log10 of the molar value. Values belong to the compound of their own block, whether it stands above or below them.
What was measured:
[1] = test system: BT20, PC3, Colo357 and BxPC3 cancer cell lines; assay: MTT cell proliferation assay, four cell lines; type: cell-based; conditions: text b152; read-out: IC50 values in multiple cancer cell lines
Experimental: (§1) The compounds were tested in multiple panels of breast (MCF-7, T47D, BT20 and MDA-MB231), prostate (PC3), and pancreatic (BxPC3, COLO357) cancer cell lines, using the dye 3-[4,5 dimethylthiazol-2-yl]-2,5 diphenyltetrazolium bromide (MTT assay) according to a method described in Banerjee, et al., Cancer Research, Vol. 62, page 4945 (2002).
(§2) Adherent cells at a logarithmic phase were detached by addition of 2-3 ml of trypsin (Gibco), 0.02% EDTA mixture and incubation at 37° C. Cells were plated (100 μL per well) in 48 well flat bottom microtiter plates at densities of 2000 to 5000 per cm^2 (MCF-7, […], T47D, BT20, PC3, BxPC3, COLO357) cells per well. Cells were incubated for 24 h at 37° C. to resume exponential growth. The test compounds were dissolved in DMSO (final concentration 0.1%) and added to the cells 24 h after seeding at varying concentrations. Control wells containing the culture medium, were included in each experiment. Cell proliferation was evaluated after 72h by means of MTT assay.
The biological effects of these compounds were studied against the hormone independent breast (BT20) and prostate (PC3) cancers as well as K-ras positive (Colo357) and K-ras negative (BxPC3) pancreatic cancer cell lines.

[2] = test system: MCF-7, T47D, BT20, MDA-MB231, PC3, BxPC3, COLO357 cancer cell lines; assay: MTT assay, panel of breast, prostate and pancreatic cancer cell lines; type: cell-based; conditions: in words
Experimental: as §1
More specifically, the tumor cell lines MCF-7, MDA-MB 231 and COLO 357 were maintained in Dulbecco's modifed Eagle's medium (DMEM) with phenol red. Cell lines T47D, BT20, PC3 and BxPC3 were routinely cultured in RPMI medium, each medium being supplemented with Penicillin (50 U/ml), Streptomycin (50 μg/ml) and 10% fetal calf serum (FCS) (Gibco, Myclone). The cell lines were cultured in a humidified incubator in an atmosphere of 5% CO2 and were maintained in continuous exponential growth by twice a week passage.
as §2, with “The test compounds were dissolved in DMSO (final concentration 0.1%) and added to the cells 24 h after seeding at varying concentrations. Control wells containing the culture medium, were included in each experiment.” left out

[3] = test system: Colo357, BxPC3, BT20, and PC3 cells; assay: Cell Death Detection ELISA apoptosis assay; type: cell-based; conditions: FIG. 15, among FPA-124, FPA-125, FPA-127
Experimental: To determine whether the metal conjugates induce apoptosis in tumor cells, quantitative evaluation of apoptosis was carried out with a Cell Death Detection ELISA kit (Roche, Palo Alto, Calif.). Apoptosis was detected according to the protocol supplied by the manufacturer.
Since all copper compounds are redox active metal conjugates, we believe that redox triggered oxidative stress may be one of the underlying mechanisms for the observed apoptotic cell death in the present case. […] This observation is also in accordance with the favorable distortion factor calculated for the present copper compounds using EPR spectra, which factor helps stabilize cuprous and cupric species without dissociation of the conjugate.

COLO 357 cells = assay: Orthotopic pancreatic tumor model; type: in vivo
Text: Since the NF-κB pathway is regulated by Akt protein, the effects of the FPA-124 on NF-κB activity was studied in an in vivo experiment, specifically the well-established orthotopic pancreatic tumor model using COLO 357 cells.

NF-κB = assay: EMSA of NF-κB in tumor tissue of orthotopic pancreatic model; type: in vivo, mice
Experimental: The redox sensitive transcription factor NF-κB, is downstream of the Akt kinase protein and plays major role in the cell proliferation and metastasis and resistance in major cancers such as breast, prostate and pancreatic. […] Nuclear proteins were extracted from the tumor tissue as described previously (see, for example, Banerjee, et al., Cancer Research, Vo. 65, p. 9064 (2005)) and kept at −70° C. until use. Protein concentration was determined using the bicinchonic acid assay kit with BSA as the standard (Pierce Chemical Co., Rockford, Ill.). The incubation mixture included 25 mM DTT and 2.5% Tween 20 in a binding buffer. The DNA-protein complex formed was separated from free oligonucleotide on 8.0% native polyacralyamide gel using buffer containing 50 mM Tris, 200 mm glycine, pH 8.5, and 1 mM EDTA, and then visualized by Odyssey Infrared Imaging System using Odyssey Software Release 1.1.
However, there were significant differences in the pattern of necrosis, inflammatory response and fibrosis among these two groups. […] The viable tumor cells form large nests or sheets with minimal stromal fibrosis and inflammatory infiltrates. […] Only 20% of the mass was viable. The viable neoplastic cells form small nests of clusters associated with extensive stromal fibrosis and inflammatory infiltrates (See, FIG. 10c). […]

[4] = test system: vascular endothelial growth factor (VEGF) in BxPC3 cells; assay: In vitro expression of VEGF (ELISA); type: cell-based, human; conditions: 10 μM, 20 μM, 72 h
Experimental: BxPC3 cells (0.1×10^6/well) were plated into 6-well plates and incubated in supplemented RPMI containing 10% FBS.

[5] = test system: breast cancer cell line (T47D); assay: Propidium iodide / Hoechst 33342 fluorescence microscopy for apoptosis; type: cell-based
Experimental: To provide further evidence of apoptosis, we carried out […] using a mixture of propidium iodide (PI) and Hoechst dye 33342 to determine the integrity of cell membranes of cancer cells. The quantification of the apoptosis was carried out by cell count after staining with PI followed by visualization of treated cells by fluorescence analysis. The fluorescent dyes PI and Hoechst 33342 were added to the cell culture medium after treatment with the test compounds (10 μM) for 48 h at a final concentrations of 10 μg/ml (PI dye) and Hoechst 33342 (1 μg/ml), respectively. After 5 minutes at 37° C. the cells were placed under a fluorescence microscope (Nikon Optiphot) with a filter block giving excitation at 380 nm and 480 nm.

[6] = test system: Akt, p-Akt and PARP in PC3 cells; assay: Western blot of Akt, p-Akt and PARP; type: cell-based, human; conditions: 10 and 20 μM, 72 h
Experimental: Control cells were incubated in the medium with Na2CO3 using same time point. After incubation the cells were lysed with This-HCl (62.5 mm) and 2% SDS. Protein concentration was then measured using […] protein assay (Pierce Chemical Co., Rockford, Ill.). Cell extracts were subjected to 10% SDS-PAGE and electrophoretically transferred to nitrocellulose membrane. Membranes were then incubated with monoclonal anti-Akt (epitome: amino acids 345-480 of Akt1, 1:500; Ontogeny, 26. San Diego, Calif.), anti-phosphor-Akt Ser473 (1:1000; Cell Signaling, Beverly, Mass.), primary monoclonal anti-PARP antibody (1:5000; Biomol, Plymouth Meeting, Pa.) and anti-β-actin (1:5000; Sigma) antibodies, washed with TTBS, and incubated with secondary antibody conjugated with peroxidase. The signal was then detected using the chemiluminescent detection system (Pierce, Rockford, Ill.).

tumor cells = assay: Incubation with copper conjugate at IC50 concentration, viability and apoptosis (data not shown); type: cell-based
[7] = FPA-102 25 mg/kg i.v. on alternate days

pIC50 [1]: < 4.40
Compound: O=c1c(-c2ccc(O)cc2)coc2cc(O)cc(O)c12 [Genistein, 4,5,7,-trihydroxyisoflavone]

Compound: CC(=O)C1CCC2C3CCC4=CC(=NNC(N)=S)CCC4(C)C3CCC12C (centres unmarked) [FPA-101, 17-acetyl-10,13-dimethyl-1,2,6,7,8,9,11,12,13,14,15,16,17-tetradecahydrocyclopenta[a]phenanthren-3-thiosemicarbazone]
antiproliferative action against the cell lines tested [2]: moderate antiproliferative action

Compound: NC1=[S+][Cu-2]([Cl])([Cl])[N+](=Cc2coc3ccccc3c2=O)N1 [FPA-124]
apoptosis by ELISA, ranking [3]: most active compound
body weight of the treated animals (toxicity) (COLO 357 cells; FPA-124, FIG. 17a): no change in the body weight
tumor load (COLO 357 cells; FPA-124, FIG. 17b): decrease in the tumor load
NF-κB activity in the tumor tissue (EMSA) (NF-κB; FPA-124, FIG. 17c): significantly decreased

Compound: CC(=O)C1CCC2C3CCC4=CC(=NNC(N)=S)CCC4(C)C3CCC12C.[Cl][Cu][Cl] (centres unmarked) [FPA-102]
VEGF levels [4]: decrease in the VEGF levels
body weight of treated mice (toxicity) (COLO 357 cells; [7]): no significant change in the body weight
tumor burden (COLO 357 cells; [7]): decrease tumor burden
viable part of tumor mass (COLO 357 cells; tumor histology of treated mice): 20%
cell morphology after PI/Hoechst staining ([5]; IC50 concentration (10 μM), FIG. 7b): nuclear condensation and membrane damage
potency of inducing apoptosis among the metal conjugates ([5]; comparison within series FPA-102 to FPA-104): highest potency of inducing apoptosis
NF-κB in the tumor tissue (EMSA) (NF-κB; treatment for 10 days once every alternate day): down-regulation of NF-κB
PARP degradation / cleavage [6]: induces poly (ADP-ribose) polymerase degradation
phosphor-Akt level [6]: down regulates
apoptotic cells (tumor cells; 24-48 h treatment at IC50 concentration): ~95%
non-viable cells (tumor cells; 3 h incubation at IC50 concentration): 40%
